Measured values reported in US7667048B2, “Green and orange fluorescent labels and their uses” (Aries Associates, Inc., priority 2002, dated 2010).

Experiment: Fluorescence excitation and emission spectra
Assay type: physicochemical
Procedure: Fluorescence excitation and emission spectra were measured either using Hitachi F-4500 Fluorescence Spectrophotometer in ratio mode with a rhodamine B quantum counter. For fluorescence polarization experiments, two different detection instruments were used, a BMG Polarstar and an LJL Analyst. Molecular brightness measurements in 96-well and 384-well microtiter plates were performed in the following four instruments: (1) the LJL analyst, (2) the Tecan Ultra, (3) the PerSeptive and, (4) Chromagen's own photon counting instrument as described in U.S. patent application Ser. No. 09/552/803 and its continuation in part.

Compound	fluorescence λ em (MeOH/H2O)	fluorescence λ ex (MeOH/H2O)	fluorescence λ em (H2O)	fluorescence λ ex (H2O)	other results
CN(C)S(=O)(=O)c1cc(O)c2ccc3c(S(=O)(=O)N(C)CCCN)cc(S(=O)(=O)N(C)C)c4ccc1c2c43 [compound 15, 1-Hydroxy-3,6-di-(dimethylsulfonamido)-8-(3-aminopropyl-methyl-sulfonamido)-pyrene]	548 nm	490 nm			
CN(C)S(=O)(=O)c1cc(O)c2ccc3c(S(=O)(=O)N(C)CCCN=C=S)cc(S(=O)(=O)N(C)C)c4ccc1c2c43 [compound 16]	548 nm	490 nm			
3-Hydroxy-6,8-disulfonate-(4′-succinylamino-6′-isothiocyanyl-hexyl)-pyrene [compound 6]			503 nm	450 nm	
1-Hydroxy-3,6-dimethylsulfonamido-8-sulfonate-pyrene [compound 14]	545 nm	490 nm			
NCCCC(=O)c1cc(O)c2ccc3c(S(=O)(=O)O)cc(S(=O)(=O)O)c4ccc1c2c34 [compound 7, 3-Hydroxy, 6,8-disulfonate-aminoethylacetyl-pyrene]	502 nm	450 nm			
3-Hydroxy-6,8-disulfonate-(4′-succinyl-6′-aminohexyl)-pyrene [compound 5]			505 nm	450 nm	
COC(=O)CCC(=O)Nc1cc(O)c2ccc3c(S(=O)(=O)O)cc(S(=O)(=O)O)c4ccc1c2c34 [compound 4, 3-Hydroxy-6,8-disulfonate-methylsuccinylamino-pyrene]			492 nm	450 nm	
CN(C)S(=O)(=O)c1cc(O)c2ccc3c(S(=O)(=O)Nc4ccc(CCCC(=O)ON5C(=O)CCC5=O)cc4)cc(S(=O)(=O)N(C)C)c4ccc1c2c34 [compound 17, 1-Hydroxy-3,6-di(dimethylsulfonamido)-8-(4′-succinimidylbutyrate)-phenylsulfonamido-pyrene]					fluorescence λ em (DMSO/Phosphate buffer): 553 nm; fluorescence λ ex (DMSO/Phosphate buffer): 510 nm
Nc1cc(O)c2ccc3c(S(=O)(=O)O)cc(S(=O)(=O)O)c4ccc1c2c43 [compound 3, 1-Amino-3-hydroxy-6,8-disulfonate-pyrene]			492 nm	450 nm	
